Data published in PubChem BioAssay AID1259407 (Chemical Carcinogenesis Research Information System (CCRIS), 2018).
Active and inactive are the calls of the source. How the calls were made is not given here.

System: CCRIS mutagenicity, Ames/micronucleus/aberration tests
Test: CCRIS mutagenicity studies
[1] = Test System: AMES SALMONELLA TYPHIMURIUM, Strain/Indicator: TA98, Metabolic Activation: NONE, Method: PREINCUBATION
[2] = Test System: AMES SALMONELLA TYPHIMURIUM, Strain/Indicator: TA100, Metabolic Activation: NONE, Method: PREINCUBATION
[3] = Test System: AMES SALMONELLA TYPHIMURIUM, Strain/Indicator: TA104, Metabolic Activation: NONE, Method: PREINCUBATION
[4] = Test System: AMES SALMONELLA TYPHIMURIUM, Strain/Indicator: TA1535, Metabolic Activation: NONE, Method: PREINCUBATION
[5] = Test System: AMES SALMONELLA TYPHIMURIUM, Strain/Indicator: TA1537, Metabolic Activation: NONE, Method: PREINCUBATION

SMILES: O=C(O)c1ccccc1Cl
- mutagenic call (Test System: AMES SALMONELLA TYPHIMURIUM, Strain/Indicator: TA97, Metabolic Activation: HAMSTER, LIVER, S-9, AROCLOR 1254 (10 OR 30%), Method: PREINCUBATION): inactive; negative
- mutagenic call (Test System: AMES SALMONELLA TYPHIMURIUM, Strain/Indicator: TA97, Metabolic Activation: NONE, Method: PREINCUBATION): inactive; negative
- mutagenic call (Test System: AMES SALMONELLA TYPHIMURIUM, Strain/Indicator: TA97, Metabolic Activation: RAT, LIVER, S-9, AROCLOR 1254 (10 OR 30%), Method: PREINCUBATION): inactive; negative
- mutagenic call (Test System: AMES SALMONELLA TYPHIMURIUM, Strain/Indicator: TA98, Metabolic Activation: HAMSTER, LIVER, S-9, AROCLOR 1254 (10 OR 30%), Method: PREINCUBATION): inactive; negative
- mutagenic call [1]: inactive; negative
- mutagenic call (Test System: AMES SALMONELLA TYPHIMURIUM, Strain/Indicator: TA98, Metabolic Activation: RAT LIVER S-9, PCB, Method: PREINCUBATION): inactive; negative
- mutagenic call (Test System: AMES SALMONELLA TYPHIMURIUM, Strain/Indicator: TA98, Metabolic Activation: RAT LIVER S-9, PHENOBARBITAL AND BETA-NAPHTHOFLAVONE, Method: PREINCUBATION): inactive; negative
- mutagenic call (Test System: AMES SALMONELLA TYPHIMURIUM, Strain/Indicator: TA98, Metabolic Activation: RAT, LIVER, S-9, AROCLOR 1254 (10 OR 30%), Method: PREINCUBATION): inactive; negative
- mutagenic call (Test System: AMES SALMONELLA TYPHIMURIUM, Strain/Indicator: TA100, Metabolic Activation: HAMSTER, LIVER, S-9, AROCLOR 1254 (10 OR 30%), Method: PREINCUBATION): inactive; negative
- mutagenic call [2]: inactive; negative
- mutagenic call (Test System: AMES SALMONELLA TYPHIMURIUM, Strain/Indicator: TA100, Metabolic Activation: RAT LIVER S-9, PCB, Method: PREINCUBATION): inactive; negative
- mutagenic call (Test System: AMES SALMONELLA TYPHIMURIUM, Strain/Indicator: TA100, Metabolic Activation: RAT LIVER S-9, PHENOBARBITAL AND BETA-NAPHTHOFLAVONE, Method: PREINCUBATION): inactive; negative
- mutagenic call (Test System: AMES SALMONELLA TYPHIMURIUM, Strain/Indicator: TA100, Metabolic Activation: RAT, LIVER, S-9, AROCLOR 1254 (10 OR 30%), Method: PREINCUBATION): inactive; negative
- mutagenic call [3]: inactive; negative
- mutagenic call (Test System: AMES SALMONELLA TYPHIMURIUM, Strain/Indicator: TA104, Metabolic Activation: RAT LIVER S-9, PCB, Method: PREINCUBATION): inactive; negative
- mutagenic call (Test System: AMES SALMONELLA TYPHIMURIUM, Strain/Indicator: TA1535, Metabolic Activation: HAMSTER, LIVER, S-9, AROCLOR 1254 (10 OR 30%), Method: PREINCUBATION): inactive; negative
- mutagenic call [4]: inactive; negative
- mutagenic call (Test System: AMES SALMONELLA TYPHIMURIUM, Strain/Indicator: TA1535, Metabolic Activation: RAT LIVER S-9, PHENOBARBITAL AND BETA-NAPHTHOFLAVONE, Method: PREINCUBATION): inactive; negative
- mutagenic call (Test System: AMES SALMONELLA TYPHIMURIUM, Strain/Indicator: TA1535, Metabolic Activation: RAT, LIVER, S-9, AROCLOR 1254 (10 OR 30%), Method: PREINCUBATION): inactive; negative
- mutagenic call (Test System: AMES SALMONELLA TYPHIMURIUM, Strain/Indicator: TA1537, Metabolic Activation: HAMSTER, LIVER, S-9, AROCLOR 1254 (30%), Method: PREINCUBATION): inactive; negative
- mutagenic call [5]: inactive; negative
- mutagenic call (Test System: AMES SALMONELLA TYPHIMURIUM, Strain/Indicator: TA1537, Metabolic Activation: RAT LIVER S-9, PHENOBARBITAL AND BETA-NAPHTHOFLAVONE, Method: PREINCUBATION): inactive; negative
- mutagenic call (Test System: AMES SALMONELLA TYPHIMURIUM, Strain/Indicator: TA1537, Metabolic Activation: RAT, LIVER, S-9, AROCLOR 1254 (30%), Method: PREINCUBATION): inactive; negative
- mutagenic call (Test System: AMES SALMONELLA TYPHIMURIUM, Strain/Indicator: TA1538, Metabolic Activation: NONE, Method: PREINCUBATION): inactive; negative
- mutagenic call (Test System: AMES SALMONELLA TYPHIMURIUM, Strain/Indicator: TA1538, Metabolic Activation: RAT LIVER S-9, PHENOBARBITAL AND BETA-NAPHTHOFLAVONE, Method: PREINCUBATION): inactive; negative
- mutagenic call (Test System: E.COLI, Strain/Indicator: WP2 UVRA, Metabolic Activation: NONE, Method: PREINCUBATION): inactive; negative
- mutagenic call (Test System: E.COLI, Strain/Indicator: WP2UVRA, Metabolic Activation: NONE, Method: PREINCUBATION): inactive; negative
- mutagenic call (Test System: E.COLI, Strain/Indicator: WP2 UVRA, Metabolic Activation: RAT LIVER S-9, PCB, Method: PREINCUBATION): inactive; negative
- mutagenic call (Test System: E.COLI, Strain/Indicator: WP2UVRA, Metabolic Activation: RAT LIVER S-9, PHENOBARBITAL AND BETA-NAPHTHOFLAVONE, Method: PREINCUBATION): inactive; negative

SMILES: CC1c2ccccc2-c2ccc(F)cc21 (stereo not given)
- mutagenic call (Test System: AMES SALMONELLA TYPHIMURIUM, Strain/Indicator: TA100, Metabolic Activation: RAT, LIVER, S-9, AROCLOR 1254, Method: STANDARD PLATE): active; positive

SMILES: COc1cc(OC)c(OC)cc1C=O
- mutagenic call (Test System: AMES SALMONELLA TYPHIMURIUM, Strain/Indicator: TA98, Metabolic Activation: HAMSTER, LIVER, S-9, AROCLOR 1254 (10%), Method: PREINCUBATION): inactive; negative
- mutagenic call [1]: inactive; negative
- mutagenic call (Test System: AMES SALMONELLA TYPHIMURIUM, Strain/Indicator: TA98, Metabolic Activation: RAT, LIVER, S-9, AROCLOR 1254 (10%), Method: PREINCUBATION): inactive; negative
- mutagenic call (Test System: AMES SALMONELLA TYPHIMURIUM, Strain/Indicator: TA100, Metabolic Activation: HAMSTER, LIVER, S-9, AROCLOR 1254 (10%), Method: PREINCUBATION): inactive; negative
- mutagenic call [2]: inactive; negative
- mutagenic call (Test System: AMES SALMONELLA TYPHIMURIUM, Strain/Indicator: TA100, Metabolic Activation: RAT LIVER S-9, AROCLOR 1254, Method: PREINCUBATION): inactive; negative
- mutagenic call (Test System: AMES SALMONELLA TYPHIMURIUM, Strain/Indicator: TA100, Metabolic Activation: RAT, LIVER, S-9, AROCLOR 1254 (10%), Method: PREINCUBATION): inactive; negative
- mutagenic call (Test System: AMES SALMONELLA TYPHIMURIUM, Strain/Indicator: TA102, Metabolic Activation: NONE, Method: PREINCUBATION): inactive; negative
- mutagenic call (Test System: AMES SALMONELLA TYPHIMURIUM, Strain/Indicator: TA102, Metabolic Activation: RAT LIVER S-9, AROCLOR 1254, Method: PREINCUBATION): inactive; negative
- mutagenic call [3]: inactive; negative
- mutagenic call (Test System: AMES SALMONELLA TYPHIMURIUM, Strain/Indicator: TA104, Metabolic Activation: RAT LIVER S-9, AROCLOR 1254, Method: PREINCUBATION): inactive; negative
- mutagenic call (Test System: AMES SALMONELLA TYPHIMURIUM, Strain/Indicator: TA1535, Metabolic Activation: HAMSTER, LIVER, S-9, AROCLOR 1254 (10%), Method: PREINCUBATION): inactive; negative
- mutagenic call [4]: inactive; negative
- mutagenic call (Test System: AMES SALMONELLA TYPHIMURIUM, Strain/Indicator: TA1535, Metabolic Activation: RAT, LIVER, S-9, AROCLOR 1254 (10%), Method: PREINCUBATION): inactive; negative
- mutagenic call (Test System: AMES SALMONELLA TYPHIMURIUM, Strain/Indicator: TA1537, Metabolic Activation: HAMSTER, LIVER, S-9, AROCLOR 1254 (10%), Method: PREINCUBATION): inactive; negative
- mutagenic call [5]: inactive; negative
- mutagenic call (Test System: AMES SALMONELLA TYPHIMURIUM, Strain/Indicator: TA1537, Metabolic Activation: RAT, LIVER, S-9, AROCLOR 1254 (10%), Method: PREINCUBATION): inactive; negative
- mutagenic call (Test System: MOUSE LYMPHOMA, Strain/Indicator: L5178Y (TK+/TK-), Metabolic Activation: RAT, LIVER, S-9, AROCLOR 1254, Method: SUSPENSION/PLATE): active; positive. reevaluation of results: equivocal
- mutagenic call (Test System: Mouse lymphoma, Strain/Indicator: L5178Y (tk+/tk-), Metabolic Activation: None, Method: Suspension/plate): inactive; negative

SMILES: CC(=O)Nc1ccc(-c2ccc(NO)cc2)cc1
- mutagenic call (Test System: CHINESE HAMSTER OVARY, Strain/Indicator: CHO-K1-BH4 (HGPRT), Metabolic Activation: NONE, Method: SUSPENSION): active; positive
